Data reported in publication PMC3945760, “Antioxidant action and cytotoxicity on HeLa and NIH-3T3 cells of new quercetin derivatives” (Interdisciplinary Toxicology, 2013).
Read-outs that look alike come from different tables or passages of the source.

Experiments:
[1] = Scavenging of DPPH radical; conditions: 10 min, room temperature, methanol, read-out: IC50 ± SD DPPH
Protocol: We used the simple spectrophotometric method according to Yen and Chen ([1995]) to determine the ability to scavenge free radicals. Binding of DPPH? radical by compounds causes its decolorization. The compounds tested were diluted in methanol to the final concentration 200 µM to 12.5 µM. Trolox served as standard antioxidant control. Reactions of samples with DPPH? solution were performed in 96-well plates and lasted for 10 min at room temperature in the dark. After that, the absorbance changes were measured spectrophotometrically at 520 nm (Multiskan FC, Thermo Scientific, DE). Each value is the mean of 5 wells with standard deviation. Inhibitory concentrations (IC50) were expressed as the concentration of the derivative tested to react with one half of the DPPH? and were calculated by SigmaPlot.

[2] = Ferric reducing antioxidant power (FRAP); conditions: 10 min, 37 °C, read-out: IC50 ± SD FRAP
Protocol: The antioxidant reducing power of the derivatives tested was performed using the FRAP method according to Benzie and Strain ([1996]). Ferric to ferrous ion reduction at low pH causes the formation of a colored ferrous-tripyridyltriazine complex. Samples diluted in methanol (200 µM to 12.5 µM) and FRAP reagent reacted for 10 min at 37 °C in 96-well microplates. At the end, absorbance changes were measured spectrophotometrically at 593 nm (Multiskan FC, Thermo Scientific, DE). Each value is the mean of 5 wells with standard deviation. Inhibitory concentrations (IC50) were expressed as the concentration of the derivative tested reducing one half of ferric complexes and were calculated by SigmaPlot.

[3] = test system: human cervical cancer cells HeLa; assay: MTT assay on HeLa cells; assay type: cell-based; conditions: for IC50: MTT, 72 h drug exposure, read-out: IC50 ± SD HeLa cells
Protocol: (§1) The human tumor cell line HeLa and murine fibroblast NIH-3T3 cells were obtained from the ATCC (Rockville, MD, USA). The cells grown at 37 °C in humidified 5%-CO2 and 95%-air atmosphere were in Dulbecco's modified eagle medium supplemented with 10% (vol/vol) inactivated bovine serum, penicillin G and streptomycin (100 mg/l). Before a uniform monolayer of cells was formed, cells were freed from the surface of the culture flask by a 0.25% solution of trypsin and were subcultivated two to three times a week. The cells were plated on the cultivation flask (surface 25 cm^2) at a density of 4×10^4 HeLa cells and 6×10^4 NIH-3T3 cells per ml medium and incubated for 24 h prior to the experiments.
(§2) The cytotoxic effect of the compounds prepared on cells was detected in vitro using the mitochondrial cytotoxic test according to Jantová et al. ([2010]) with modifications. Cell viability was evaluated using thiazolyl blue tetrazolium bromide (MTT), which indicates the metabolic activity of cells. The experiment was performed in 96-well microplates. The cells were seeded at a density of 3.5×10^3 HeLa or NIH-3T3 cells per well. Samples were dissolved in DMSO (stock solution 10 mM) and subsequently diluted in medium to the final concentration of 5 µM to 100 µM (concentration of DMSO 0.5%) and after 24 h they were added to the cells. Microplates were cultivated for 72 h in thermostat at 37 °C and 5% CO2 atmosphere. After incubation thiazolyl blue tetrazolium bromide (3.33 mg/ml phosphate buffered saline, pH=7.4) was pipetted to each well and left to incubate for further two hours. Then the medium with MTT solution was removed. Formazan crystals in viable cells were dissolved in the lysis solution (4 mM HCl and 0.1% Nonidet P40 in ethanol). Microplates were shaken 15 min at 1500 rpm. Absorbance was measured at 540 nm and reference wavelength at 740 nm (Multiskan FC, Thermo Scientific, DE). Each value is the mean of 6 wells with standard deviation. Inhibition activity was expressed as percentages of control with DMSO. For each compound IC50 values were calculated by SigmaPlot.

[4] = test system: non-cancer murine fibroblast cells NIH-3T3; assay: MTT assay on NIH-3T3 cells; assay type: cell-based; conditions: for IC50: MTT, 72 h drug exposure, read-out: IC50 ± SD NIH-3T3 cells
Protocol: as §1, §2

[5] = test system: HeLa cells; assay: Light microscopy of HeLa cells; assay type: cell-based, human; conditions: 25 µM and 50 µM, 72 h
Protocol: (§3) The cytotoxic action of the effective chloronaphtoquinone quercetin 5 was further observed also by light microscopy after 72 h of HeLa and NIH-3T3 cells cultivation. […] On the other hand, a significant decrease in cell number was found in cells treated with both concentrations studied (25 µM and 50 µM).
(§4) We monitored prepared quercetin derivatives for their cytotoxic action on human cervical cancer cells HeLa in the concentration range from 5 µM to 100 µM. For comparison non-cancer murine fibroblast cells NIH-3T3 were also evaluated. The MTT test and light microscopy were used for cytotoxicity measurements.

[6] = test system: NIH-3T3 cells; assay: Light microscopy of NIH-3T3 cells; assay type: cell-based, murine; conditions: NIH-3T3, 25 µM and 50 µM, 72 h
Protocol: as §3, §4

IC50 [1]	IC50 [2]	IC50 [3]	Compound	IC50 ([4]; Mus musculus, NIH3T3, 72 h)	inhibition at 25 µM ([3]; 25 µM, 72 h, read-out: Inhibition of cell proliferation)	inhibition at 50 µM ([3]; 50 µM, 72 h, read-out: Inhibition of cell proliferation)	inhibition at 100 µM ([3]; 100 µM, 72 h, read-out: Inhibition of cell proliferation)	inhibition at 25 µM ([4]; Mus musculus, NIH3T3, NIH-3T3, 25 µM, 72 h, read-out: Inhibition of cell proliferation)	inhibition at 50 µM ([4]; Mus musculus, NIH3T3, NIH-3T3, 50 µM, 72 h, read-out: Inhibition of cell proliferation)	inhibition at 100 µM ([4]; Mus musculus, NIH3T3, NIH-3T3, 100 µM, 72 h, read-out: Inhibition of cell proliferation)	morphologic changes [5]	morphologic changes [6]	IC50 [4]
16.2 ± 1.1 µM	12.5 ± 0.9 µM	35.5 ± 1.1 µM	O=c1c(O)c(-c2ccc(O)c(O)c2)oc2cc(O)cc(O)c12 [Q, quercetin]	20.9 ± 0.9 µM									
34.7 ± 1 µM	39.5 ± 2.1 µM	34.7 ± 1 µM	Cc1c(C)c2c(c(C)c1O)CCC(C)(C(=O)O)O2 (stereo not shown) [T, trolox, reference compound]	39.5 ± 2.1 µM									
58.8 ± 6.2 µM	103 ± 6.2 µM	64 ± 7.5 µM	O=C1c2c(O)cc(O)cc2OC2(c3ccc(O)c(O)c3)Oc3ccc(-c4oc5cc(O)cc(O)c5c(=O)c4O)cc3OC12O (stereo not shown) [compound 1, diquercetin]	32.9 ± 1.1 µM									
27 ± 0.2 µM	12.5 ± 0.3 µM	43.4 ± 2.8 µM	CC(C)(CCl)C(=O)Oc1cc(-c2oc3cc(O)cc(O)c3c(=O)c2O)ccc1O [compound 2]	26.8 ± 0.5 µM									
> 200 µM	> 200 µM	65 ± 4.5 µM	CC(C)(CCl)C(=O)Oc1cc(OC(=O)C(C)(C)CCl)c2c(=O)c(O)c(-c3ccc(O)c(OC(=O)C(C)(C)CCl)c3)oc2c1 [compound 3]	20.3 ± 1.9 µM									
> 200 µM	> 200 µM	> 100 µM	CC1CN(CC(O)COc2cc(O)cc3oc(-c4ccc(O)c(O)c4)c(O)c(=O)c23)CC(C)O1 (stereo not shown) [compound 4]	> 100 µM									
28.4 ± 3 µM	64.5 ± 0.6 µM	13.2 ± 1.6 µM	O=C1C(Cl)=C(Oc2cc(-c3oc4cc(O)cc(O)c4c(=O)c3O)ccc2O)C(=O)c2ccccc21 [compound 5, chloronaphtoquinone quercetin]	16.5 ± 0.1 µM	94.5%	97.9%	97.7%	71.9%	85.2%	93.7%	cell rounding and cell separation from the cultivation surface	cell rounding and cell separation from the cultivation surface	
> 200 µM	> 200 µM	29.6 ± 1.9 µM	CC(=O)Oc1cc(OC(C)=O)c2c(=O)c(OC(C)=O)c(-c3ccc(OC(C)=O)c(OC(C)=O)c3)oc2c1 [compound 6, pentaacetyl quercetin]	15.5 ± 0.7 µM									
> 200 µM	> 200 µM	> 50 µM	CC(C)=CCOc1ccc(/C=C/C(=O)Oc2cc(O)c3c(=O)c(O)c(-c4ccc(OC(=O)/C=C/c5ccc(OCC=C(C)C)c(OCC=C(C)C)c5)c(OC(=O)/C=C/c5ccc(OCC=C(C)C)c(OCC=C(C)C)c5)c4)oc3c2)cc1OCC=C(C)C [compound 7]	> 100 µM									> 50 µM
161 ± 13.2 µM	> 200 µM	> 50 µM	CC(C)=CCOc1ccc(/C=C/C(=O)Oc2cc(O)c3c(=O)c(O)c(-c4ccc(OC(=O)/C=C/c5ccc(OCC=C(C)C)c(OCC=C(C)C)c5)c(O)c4)oc3c2)cc1OCC=C(C)C [compound 8]	> 100 µM									> 50 µM
63.7 ± 2.6 µM	112 ± 7.3 µM	19.5 ± 0.8 µM	CC(=O)OC1CC(OC(C)=O)(C(=O)Oc2cc(O)c3c(=O)c(O)c(-c4ccc(OC(=O)C5(OC(C)=O)CC(OC(C)=O)C(OC(C)=O)C(OC(C)=O)C5)c(O)c4)oc3c2)CC(OC(C)=O)C1OC(C)=O (stereo not shown) [compound 9, di(tetraacetylquinoyl) quercetin]	16.1 ± 0.4 µM									
35.4 ± 2.7 µM	> 200 µM	16.5 ± 1.5 µM	CC(=O)Oc1ccc(/C=C/C(=O)Oc2ccc(-c3oc4cc(O)c(O)cc4c(=O)c3OC(=O)/C=C/c3ccc(OC(C)=O)c(OC(C)=O)c3)cc2OC(=O)/C=C/c2ccc(OC(C)=O)c(OC(C)=O)c2)cc1OC(C)=O [compound 11]	10.6 ± 0.1 µM									
> 200 µM	> 200 µM	> 50 µM	CC(=O)Oc1ccccc1C(=O)Oc1ccc(-c2oc3cc(O)cc(OC(=O)c4ccccc4OC(C)=O)c3c(=O)c2OC(=O)c2ccccc2OC(C)=O)cc1OC(=O)c1ccccc1OC(C)=O [compound 12, tetra(acetylsalicyloyl) quercetin]	> 50 µM									
82.8 ± 3.3 µM	183 ± 13.5 µM	> 50 µM	COc1ccc(/C=C/C(=O)Oc2ccc(-c3oc4cc(O)cc(O)c4c(=O)c3O)cc2OC(=O)/C=C/c2ccc(OC)c(OCC=C(C)C)c2)cc1OCC=C(C)C [compound 14]	> 50 µM									
> 200 µM	> 200 µM	> 50 µM	COc1ccc(/C=C/C(=O)Oc2cc(-c3oc4cc(O)cc(O)c4c(=O)c3O)ccc2O)cc1OC(C)=O [compound 15]	> 50 µM									
